Active and inactive are the calls of the source.
Experiments:
[1] = molecular target: Large T antigen (Simian virus 40, UniProt P03070); type: functional, Betapolyomavirus macacae;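 also: Confirmatory-stage PubChem screen for compounds that inhibit SV40 T antigen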
[2] = molecular target: Induced myeloid leukemia cell differentiation protein Mcl-1 (Homo sapiens, UniProt Q07820); type: functional
[3] = molecular target: T1, Long-chain-fatty-acid--AMP ligase FadD28 (Mycobacterium tuberculosis, UniProt P9WQ59); experiment: Fluorescence polarization aasay to screen for inhibitors that compete for the binding of FadD28 to a bisubstrate Measured in Biochemical System Using Plate Reader - 2147-01_Inhibitor_Dose_CherryPick_Activity.; type: functional, Mycobacterium tuberculosis H37Rv
T1 sequence (P9WQ59 whole entry): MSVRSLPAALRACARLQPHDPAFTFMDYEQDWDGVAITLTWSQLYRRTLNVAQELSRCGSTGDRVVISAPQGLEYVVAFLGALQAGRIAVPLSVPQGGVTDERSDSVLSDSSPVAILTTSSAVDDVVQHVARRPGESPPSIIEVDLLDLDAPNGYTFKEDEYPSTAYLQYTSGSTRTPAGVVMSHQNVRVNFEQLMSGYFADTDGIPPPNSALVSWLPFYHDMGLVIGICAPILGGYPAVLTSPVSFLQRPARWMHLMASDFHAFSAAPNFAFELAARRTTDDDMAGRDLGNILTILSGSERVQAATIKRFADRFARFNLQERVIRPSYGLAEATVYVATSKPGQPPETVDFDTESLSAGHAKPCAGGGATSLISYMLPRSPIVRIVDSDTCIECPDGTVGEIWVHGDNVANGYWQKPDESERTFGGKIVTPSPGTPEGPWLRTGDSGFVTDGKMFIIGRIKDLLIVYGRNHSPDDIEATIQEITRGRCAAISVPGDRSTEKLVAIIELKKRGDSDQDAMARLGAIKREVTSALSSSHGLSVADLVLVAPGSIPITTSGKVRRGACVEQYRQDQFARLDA

[4] = molecular target: DNA dC->dU-editing enzyme APOBEC-3A (Homo sapiens, UniProt P31941); experiment: Dose Response confirmation of small molecule APOBEC3A DNA Deaminase Inhibitors via a fluorescence-based single-stranded DNA deaminase assay. [Related pubchem assays (depositor defined):AID493011, AID493024]; type: functional
[5] = molecular target: DNA dC->dU-editing enzyme APOBEC-3G (Homo sapiens, UniProt Q9HC16); type: functional;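 also: Dose-response counterscreen measuring inhibition of APOBEC3G DNA deaminase activity, run while confirming APOBEC3A inhibitors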
[6] = test system: HeLa; experiment: HeLa cell cytotoxicity, dose response, cytotoxicity control for MITF activator project, CellTiter-Glo luminescence, cherry-pick samples (AID 540259); type: functional, cell-based; details: Homo sapiens
[7] = molecular target: T2, Aminopeptidase N (Plasmodium falciparum FcB1/Columbia, UniProt O96935); experiment: P. falciparum M1AAP inhibitors, biochemical, fluorogenic H-Leu-NHMec substrate, 1536-well (AID 1445); set-up: species or system Plasmodium falciparum 3D7, 3D7
T2 sequence (O96935 whole entry): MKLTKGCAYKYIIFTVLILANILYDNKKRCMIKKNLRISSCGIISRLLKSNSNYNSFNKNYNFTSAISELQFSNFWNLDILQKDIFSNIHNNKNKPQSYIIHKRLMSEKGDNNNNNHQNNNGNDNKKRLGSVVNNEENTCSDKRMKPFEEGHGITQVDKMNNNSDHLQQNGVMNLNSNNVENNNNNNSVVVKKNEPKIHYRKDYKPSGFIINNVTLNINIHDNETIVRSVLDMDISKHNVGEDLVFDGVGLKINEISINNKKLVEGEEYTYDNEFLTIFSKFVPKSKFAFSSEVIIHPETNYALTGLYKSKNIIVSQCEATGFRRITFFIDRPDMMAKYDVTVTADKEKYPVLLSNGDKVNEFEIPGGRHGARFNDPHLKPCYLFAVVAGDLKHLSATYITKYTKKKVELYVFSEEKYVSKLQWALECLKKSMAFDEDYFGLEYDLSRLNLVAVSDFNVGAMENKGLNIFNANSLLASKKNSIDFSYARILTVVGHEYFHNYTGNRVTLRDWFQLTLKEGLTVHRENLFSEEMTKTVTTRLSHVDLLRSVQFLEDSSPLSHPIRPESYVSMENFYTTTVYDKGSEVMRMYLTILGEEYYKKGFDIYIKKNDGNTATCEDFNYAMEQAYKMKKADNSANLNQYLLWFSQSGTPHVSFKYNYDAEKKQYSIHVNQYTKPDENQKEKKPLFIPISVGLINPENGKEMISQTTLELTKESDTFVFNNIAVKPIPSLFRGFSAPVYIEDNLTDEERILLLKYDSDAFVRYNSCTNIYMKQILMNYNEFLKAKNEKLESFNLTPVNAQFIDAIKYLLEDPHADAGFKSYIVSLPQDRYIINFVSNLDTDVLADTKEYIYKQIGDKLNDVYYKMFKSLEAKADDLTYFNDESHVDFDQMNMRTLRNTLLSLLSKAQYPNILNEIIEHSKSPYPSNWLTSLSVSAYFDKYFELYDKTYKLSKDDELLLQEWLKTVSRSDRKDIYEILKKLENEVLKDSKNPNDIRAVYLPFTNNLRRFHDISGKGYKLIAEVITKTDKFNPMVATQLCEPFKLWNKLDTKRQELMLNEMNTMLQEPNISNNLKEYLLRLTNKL

[8] = molecular target: Cytochrome P450 2C9 (Homo sapiens, UniProt P11712)
[9] = molecular target: T3, Carboxy-terminal domain RNA polymerase II polypeptide A small phosphatase 1 (Homo sapiens, UniProt Q9GZU7); experiment: inhibitors of CTDSP1, concentration-response testing, biochemical assay, absorbance-based, actives from ultra-high-throughput screening (AID 540297); type: functional
T3 sequence (Q9GZU7 whole entry): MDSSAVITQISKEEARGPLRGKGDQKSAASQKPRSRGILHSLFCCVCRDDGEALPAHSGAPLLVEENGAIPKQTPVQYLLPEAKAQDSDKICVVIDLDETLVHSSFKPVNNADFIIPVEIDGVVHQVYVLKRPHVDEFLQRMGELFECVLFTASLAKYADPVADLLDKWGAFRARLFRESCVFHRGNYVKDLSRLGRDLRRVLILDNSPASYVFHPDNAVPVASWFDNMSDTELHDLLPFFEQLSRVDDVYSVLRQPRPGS

[10] = molecular target: Cytochrome P450 3A4 (Homo sapiens, UniProt P08684);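 also: CYP3A4 tested as one member of a cytochrome P450 panel screen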
[11] = molecular target: T4, Fatty acid synthase (Homo sapiens, UniProt P49327); experiment: FAS thioesterase domain inhibitors, dose response, biochemical, endpoint fluorescence intensity, uHTS hits (AID 624327); type: functional;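 also: fluorescence from hydrolysis of an O-methyl fluorescein acyl ester substrate by the enzyme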
[12] = molecular target: T4, Fatty acid synthase; experiment: FAS thioesterase domain inhibitors, dose response, biochemical, kinetic fluorescence intensity (AID 624326); type: functional;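 also: rate of fluorescence rise from hydrolysis of a fluorogenic O-methyl fluorescein ester substrate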
[13] = inhibitors of intracellular T. cruzi replication, confirmation, NIH3T3 host cells, beta-gal luminescence (AID 2044); type: functional, cell-based;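 also: intracellular parasites grown in NIH/3T3 mouse fibroblasts as host cells; luminescent beta-galactosidase reporter signal from transgenic T. cruzi replicating inside host cells; inhibitors lower the luminescence signal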
[14] = cytotoxicity toward NIH3T3 fibroblasts, dose response, counter-screen, cell-based, ATP luminescence, mouse fibroblasts (AID 2010); type: functional;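 also: cells exposed to compound for about 90 hours before reading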
[15] = molecular target: T5, Cytochrome P450 1A2 (Homo sapiens, UniProt P05177);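 also: PubChem cytochrome P450 panel assay, CYP1A2 panel member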
T5 sequence (P05177 whole entry): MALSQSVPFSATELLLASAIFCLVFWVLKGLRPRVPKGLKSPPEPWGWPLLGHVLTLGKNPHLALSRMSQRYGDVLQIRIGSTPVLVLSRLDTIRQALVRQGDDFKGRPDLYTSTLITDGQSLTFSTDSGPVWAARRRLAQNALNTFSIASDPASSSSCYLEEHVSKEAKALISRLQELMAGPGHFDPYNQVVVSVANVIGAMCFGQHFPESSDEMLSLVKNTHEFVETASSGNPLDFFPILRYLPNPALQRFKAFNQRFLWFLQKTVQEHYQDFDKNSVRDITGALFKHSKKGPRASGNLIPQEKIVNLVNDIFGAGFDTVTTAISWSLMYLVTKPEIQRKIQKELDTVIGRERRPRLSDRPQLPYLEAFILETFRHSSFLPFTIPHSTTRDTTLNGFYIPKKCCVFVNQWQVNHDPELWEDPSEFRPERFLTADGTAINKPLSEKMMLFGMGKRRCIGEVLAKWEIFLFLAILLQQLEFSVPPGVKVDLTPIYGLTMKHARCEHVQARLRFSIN

[16] = test system: Streptococcus sp. 'group A'; experiment: growth inhibition of control SK(-) GAS strain, dose response, counter-screen for streptokinase expression inhibitor project, luminescence, kanamycin, BacTiterGlo, confirmation (AID 1900); type: functional, organism-based
[17] = cells; type: functional, cell-based
[18] = cells; type: functional, cell-based; remark: listed apart in the source
[19] = test system: Streptococcus; experiment: Group A Streptococcus viability loss, dose response, counter-screen for streptokinase expression inhibitor project, luminescence, BacTiterGlo (AID 1915); type: functional, organism-based;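 also: potency for reduction of bacterial viability or growth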
[20] = molecular target: Nonstructural protein 1 (Influenza A virus, UniProt Q194T2); type: functional, Influenza A virus (A/California/07/2009(H1N1))
[21] = molecular target: T6, Microphthalmia-associated transcription factor (Homo sapiens, UniProt O75030); experiment: TRPM1 promoter luciferase signal decrease, dose response, MITF inhibitor project, cell-based, SK-MEL-5, cherry-picked, set 3 (AID 493073); type: functional
T6 sequence (O75030 whole entry): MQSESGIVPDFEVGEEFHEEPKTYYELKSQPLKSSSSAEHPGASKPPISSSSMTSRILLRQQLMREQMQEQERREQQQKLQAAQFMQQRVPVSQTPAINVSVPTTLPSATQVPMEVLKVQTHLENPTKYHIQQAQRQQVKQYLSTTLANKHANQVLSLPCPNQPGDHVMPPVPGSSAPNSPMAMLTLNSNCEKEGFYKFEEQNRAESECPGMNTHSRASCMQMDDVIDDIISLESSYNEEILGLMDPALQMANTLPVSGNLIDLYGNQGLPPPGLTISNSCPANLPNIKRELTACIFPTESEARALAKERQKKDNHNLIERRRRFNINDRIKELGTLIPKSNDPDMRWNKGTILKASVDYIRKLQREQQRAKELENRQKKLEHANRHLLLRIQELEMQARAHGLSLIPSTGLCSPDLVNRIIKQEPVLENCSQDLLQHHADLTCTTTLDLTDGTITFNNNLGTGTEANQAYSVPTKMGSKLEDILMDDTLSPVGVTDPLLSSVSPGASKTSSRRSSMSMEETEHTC

[22] = test system: BJ; experiment: cells; type: functional, cell-based; details: Homo sapiens
[23] = cytotoxicity in HEK-293T cells, dose response, cytotoxicity control for TCR NF-kB inhibitor project, luminescence, T-cell screen hits (AID 489026); type: functional, cell-based;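 also: cells exposed to compound about 14 hours before the viability readout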
[24] = molecular target: Cytochrome P450 2C19 (Homo sapiens, UniProt P33261); experiment: Cytochrome panel assay with activity outcomes. Panel member name: p450-cyp2c19 Compounds with AC50 equal or less than 10 uM are considered active; type: functional; details: read-out: AC50
Sequence of Cytochrome P450 2C19 (P33261 whole entry): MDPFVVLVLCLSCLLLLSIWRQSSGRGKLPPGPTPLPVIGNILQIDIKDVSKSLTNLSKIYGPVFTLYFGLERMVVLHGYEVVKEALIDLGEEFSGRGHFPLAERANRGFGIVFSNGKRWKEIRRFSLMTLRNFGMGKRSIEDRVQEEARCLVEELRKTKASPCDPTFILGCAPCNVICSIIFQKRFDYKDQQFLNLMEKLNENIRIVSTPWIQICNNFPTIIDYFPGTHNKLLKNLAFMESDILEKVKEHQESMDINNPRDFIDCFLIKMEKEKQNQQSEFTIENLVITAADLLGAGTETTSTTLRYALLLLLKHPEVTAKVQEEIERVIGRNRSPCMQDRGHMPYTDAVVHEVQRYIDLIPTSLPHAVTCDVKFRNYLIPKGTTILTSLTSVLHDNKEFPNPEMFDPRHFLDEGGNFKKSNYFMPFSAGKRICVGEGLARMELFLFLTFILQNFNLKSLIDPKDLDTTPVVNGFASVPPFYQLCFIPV

Sequence of Cytochrome P450 2C9 (P11712 whole entry, the tested form may be a part): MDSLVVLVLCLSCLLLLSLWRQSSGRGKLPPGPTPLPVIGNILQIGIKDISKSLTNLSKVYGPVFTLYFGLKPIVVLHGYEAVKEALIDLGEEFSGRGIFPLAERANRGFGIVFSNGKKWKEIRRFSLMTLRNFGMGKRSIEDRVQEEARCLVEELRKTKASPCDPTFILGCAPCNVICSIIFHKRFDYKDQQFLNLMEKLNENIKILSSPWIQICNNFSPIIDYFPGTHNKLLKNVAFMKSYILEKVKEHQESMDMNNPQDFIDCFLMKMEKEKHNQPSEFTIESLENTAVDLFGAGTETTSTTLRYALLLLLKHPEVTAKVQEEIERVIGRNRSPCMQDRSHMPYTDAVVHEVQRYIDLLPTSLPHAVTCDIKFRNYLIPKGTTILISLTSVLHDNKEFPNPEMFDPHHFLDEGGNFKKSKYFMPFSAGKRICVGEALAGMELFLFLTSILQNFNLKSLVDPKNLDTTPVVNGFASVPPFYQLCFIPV
Sequence of DNA dC->dU-editing enzyme APOBEC-3G (Q9HC16 whole entry): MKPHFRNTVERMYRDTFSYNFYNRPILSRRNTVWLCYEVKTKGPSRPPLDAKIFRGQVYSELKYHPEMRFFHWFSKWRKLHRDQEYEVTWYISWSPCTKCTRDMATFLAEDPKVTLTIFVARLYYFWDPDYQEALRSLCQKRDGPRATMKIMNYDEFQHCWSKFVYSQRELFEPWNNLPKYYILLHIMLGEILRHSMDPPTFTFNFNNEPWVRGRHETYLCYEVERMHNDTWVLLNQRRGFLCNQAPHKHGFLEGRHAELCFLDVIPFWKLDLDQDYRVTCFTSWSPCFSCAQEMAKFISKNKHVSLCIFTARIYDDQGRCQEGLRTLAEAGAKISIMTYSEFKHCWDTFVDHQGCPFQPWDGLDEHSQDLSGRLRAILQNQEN
Sequence of DNA dC->dU-editing enzyme APOBEC-3A (P31941 whole entry): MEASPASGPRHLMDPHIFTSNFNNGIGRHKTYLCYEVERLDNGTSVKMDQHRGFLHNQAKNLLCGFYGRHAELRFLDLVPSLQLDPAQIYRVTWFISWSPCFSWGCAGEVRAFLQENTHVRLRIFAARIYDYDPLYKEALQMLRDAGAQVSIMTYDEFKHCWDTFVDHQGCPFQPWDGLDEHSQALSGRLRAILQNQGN
T4 sequence (P49327 whole entry, the tested form may be a part): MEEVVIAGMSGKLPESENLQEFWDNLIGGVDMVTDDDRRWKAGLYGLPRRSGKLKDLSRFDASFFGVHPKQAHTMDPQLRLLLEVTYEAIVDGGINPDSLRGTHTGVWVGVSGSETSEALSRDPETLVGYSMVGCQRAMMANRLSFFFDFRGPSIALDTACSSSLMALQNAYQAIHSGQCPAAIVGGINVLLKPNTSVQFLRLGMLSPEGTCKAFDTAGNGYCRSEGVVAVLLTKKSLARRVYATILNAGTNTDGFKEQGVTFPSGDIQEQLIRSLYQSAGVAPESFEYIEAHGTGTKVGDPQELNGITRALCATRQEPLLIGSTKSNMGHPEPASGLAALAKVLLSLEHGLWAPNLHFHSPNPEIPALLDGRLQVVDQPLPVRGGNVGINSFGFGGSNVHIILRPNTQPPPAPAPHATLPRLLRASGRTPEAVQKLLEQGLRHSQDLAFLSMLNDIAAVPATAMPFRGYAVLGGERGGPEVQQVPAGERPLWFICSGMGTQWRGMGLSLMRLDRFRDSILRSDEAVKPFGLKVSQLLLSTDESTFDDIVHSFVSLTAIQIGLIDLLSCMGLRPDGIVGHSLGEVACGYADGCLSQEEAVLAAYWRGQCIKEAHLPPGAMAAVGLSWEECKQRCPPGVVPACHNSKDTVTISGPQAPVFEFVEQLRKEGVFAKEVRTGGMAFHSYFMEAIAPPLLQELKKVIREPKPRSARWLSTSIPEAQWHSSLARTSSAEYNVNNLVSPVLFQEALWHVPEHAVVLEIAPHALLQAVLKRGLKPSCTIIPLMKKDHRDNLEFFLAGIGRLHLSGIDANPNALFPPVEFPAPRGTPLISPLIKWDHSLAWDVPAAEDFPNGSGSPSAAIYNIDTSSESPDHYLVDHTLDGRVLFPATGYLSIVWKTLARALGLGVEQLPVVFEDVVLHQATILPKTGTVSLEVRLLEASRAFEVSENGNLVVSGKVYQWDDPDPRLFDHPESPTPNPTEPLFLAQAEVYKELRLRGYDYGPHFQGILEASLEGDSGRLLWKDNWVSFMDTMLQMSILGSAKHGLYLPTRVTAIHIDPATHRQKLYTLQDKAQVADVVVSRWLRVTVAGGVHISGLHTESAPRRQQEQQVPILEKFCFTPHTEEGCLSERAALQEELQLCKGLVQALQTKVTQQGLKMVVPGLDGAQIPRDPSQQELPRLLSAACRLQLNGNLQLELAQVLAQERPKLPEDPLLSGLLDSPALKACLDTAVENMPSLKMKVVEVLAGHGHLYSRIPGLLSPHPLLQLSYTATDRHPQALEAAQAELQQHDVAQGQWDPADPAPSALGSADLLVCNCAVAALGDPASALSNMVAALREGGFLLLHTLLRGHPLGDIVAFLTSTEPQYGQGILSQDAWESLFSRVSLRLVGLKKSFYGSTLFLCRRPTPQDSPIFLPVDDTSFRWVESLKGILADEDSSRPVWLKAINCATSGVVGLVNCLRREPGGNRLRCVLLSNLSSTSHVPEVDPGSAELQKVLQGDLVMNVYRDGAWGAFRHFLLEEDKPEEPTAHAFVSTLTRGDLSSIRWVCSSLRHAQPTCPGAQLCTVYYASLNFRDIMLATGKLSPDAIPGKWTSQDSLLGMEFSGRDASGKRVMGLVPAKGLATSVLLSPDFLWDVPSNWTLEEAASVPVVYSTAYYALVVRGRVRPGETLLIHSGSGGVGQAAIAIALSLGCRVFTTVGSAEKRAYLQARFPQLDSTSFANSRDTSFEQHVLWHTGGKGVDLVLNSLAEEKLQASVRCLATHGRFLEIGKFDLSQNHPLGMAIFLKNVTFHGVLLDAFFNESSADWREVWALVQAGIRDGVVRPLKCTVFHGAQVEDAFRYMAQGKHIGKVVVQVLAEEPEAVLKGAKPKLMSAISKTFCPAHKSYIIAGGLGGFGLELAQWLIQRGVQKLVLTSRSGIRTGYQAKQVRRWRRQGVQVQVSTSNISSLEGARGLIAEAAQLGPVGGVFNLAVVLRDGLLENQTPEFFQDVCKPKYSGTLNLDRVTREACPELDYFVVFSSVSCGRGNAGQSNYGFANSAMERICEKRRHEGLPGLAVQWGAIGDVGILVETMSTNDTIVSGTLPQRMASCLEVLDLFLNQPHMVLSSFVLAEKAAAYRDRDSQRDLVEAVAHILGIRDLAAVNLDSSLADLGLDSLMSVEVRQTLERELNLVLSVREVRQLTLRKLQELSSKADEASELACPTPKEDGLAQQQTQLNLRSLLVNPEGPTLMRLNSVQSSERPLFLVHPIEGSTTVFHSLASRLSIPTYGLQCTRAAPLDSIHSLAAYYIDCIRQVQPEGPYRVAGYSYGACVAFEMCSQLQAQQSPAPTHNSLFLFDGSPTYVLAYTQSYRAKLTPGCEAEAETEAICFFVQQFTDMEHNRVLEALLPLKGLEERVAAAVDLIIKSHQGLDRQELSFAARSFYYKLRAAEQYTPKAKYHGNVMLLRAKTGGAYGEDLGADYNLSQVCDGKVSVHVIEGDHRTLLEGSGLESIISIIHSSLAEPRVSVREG
Sequence of Large T antigen (P03070 whole entry): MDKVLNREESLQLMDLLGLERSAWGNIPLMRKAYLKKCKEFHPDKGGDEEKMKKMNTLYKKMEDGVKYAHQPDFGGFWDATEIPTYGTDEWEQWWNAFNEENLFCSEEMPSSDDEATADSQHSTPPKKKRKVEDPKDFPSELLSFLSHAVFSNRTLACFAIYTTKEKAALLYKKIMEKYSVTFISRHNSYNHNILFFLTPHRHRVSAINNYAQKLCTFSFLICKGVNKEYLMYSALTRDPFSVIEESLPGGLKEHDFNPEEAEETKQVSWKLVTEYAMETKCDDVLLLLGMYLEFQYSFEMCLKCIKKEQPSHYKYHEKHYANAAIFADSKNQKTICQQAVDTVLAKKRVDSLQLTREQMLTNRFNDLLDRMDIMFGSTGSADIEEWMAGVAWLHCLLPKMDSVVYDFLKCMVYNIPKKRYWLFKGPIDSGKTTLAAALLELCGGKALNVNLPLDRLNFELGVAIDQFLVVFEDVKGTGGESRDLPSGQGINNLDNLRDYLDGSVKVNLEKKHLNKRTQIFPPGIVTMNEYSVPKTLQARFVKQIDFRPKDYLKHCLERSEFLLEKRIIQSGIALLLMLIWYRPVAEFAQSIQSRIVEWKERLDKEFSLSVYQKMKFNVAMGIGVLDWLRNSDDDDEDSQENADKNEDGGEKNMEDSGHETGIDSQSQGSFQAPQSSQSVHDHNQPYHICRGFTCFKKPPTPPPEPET
Sequence of Nonstructural protein 1 (Q194T2 whole entry): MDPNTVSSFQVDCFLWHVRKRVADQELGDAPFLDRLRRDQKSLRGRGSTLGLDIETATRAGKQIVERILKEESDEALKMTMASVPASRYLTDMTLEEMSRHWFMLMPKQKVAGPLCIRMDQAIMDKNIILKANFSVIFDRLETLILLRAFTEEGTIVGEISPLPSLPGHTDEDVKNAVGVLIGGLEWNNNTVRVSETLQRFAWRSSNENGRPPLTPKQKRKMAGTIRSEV

For `O=C1NN(c2ccccc2)C(=O)/C1=C\c1ccc(-c2cc([N+](=O)[O-])ccc2O)o1`, the IC50 [1] was 20.7 µM (active), the IC50 [2] was 10.7 µM (active) and the AC50 [3] was 8.08 µM (active).
With `CN1CCN(S(=O)(=O)c2cccc(C(=O)N(C)CC(=O)Nc3ccc(F)c(F)c3F)c2)CC1` the IC50 [4] was 3.94 µM (active) and the IC50 [5] was 5.4 µM (active).
With `Clc1ccc(-c2ccc(SCc3ccccn3)nn2)cc1` the AC50 [6] was 50.7 µM (active).
In the case of `CS(=O)(=O)N1CCc2cc(C(=O)Nc3ccccc3Br)ccc21`, the AC50 [6] is reported as > 350 µM (inactive).
With `Cc1ccc(NC(=O)C(C)N2C(=O)c3ccccc3C2=O)cc1S(=O)(=O)N1CCOCC1` (stereo not given) the IC50 [7] was 115 µM (active).
With `CCN(N=O)c1ccc(C=C2C=Cc3ccccc32)cc1` the AC50 [6] was 68.9 µM (active).
For `CC(C)CNC(=O)CCCc1c[nH]c2ccccc12.O=C(O)C(=O)O`, the AC50 [8] was “inconclusive”.
In the case of `C[n+]1ccc(C(=O)Nc2ccccc2Cl)cc1`, the IC50 [4] is reported as 2.01 µM (active), the IC50 [5] is reported as 1.72 µM (active) and the IC50 [9] is reported as 7.68 µM (active).
For `Cc1ccc(S(=O)(=O)N2CCC(C(=O)NCCCOC(C)C)CC2)cc1`, the AC50 [10] was 25.1 µM (inconclusive) and the AC50 [8] was “inconclusive”.
In the case of `C=CCOc1c(Br)cc(/C=N/Nc2ccc(C(=O)O)cc2)cc1OCC`, the AC50 [3] is reported as 62.7 µM (active), the IC50 [11] is reported as 12.6 µM (active) and the IC50 [12] is reported as 10.5 µM (active).
In the case of `O=C(Nc1ncc(Cc2cc(Cl)ccc2Cl)s1)c1ccc([N+](=O)[O-])cc1`, the EC50 [13] is reported as 1.31 µM (active), the EC50 [14] is reported as > 30 µM (not active) and the AC50 [15] is reported as 5.62 µM (inconclusive). The AC50 [8] was “inconclusive”.
With `O=C(N/N=C/C1CCCCC1)c1ccccn1` the AC50 [15] was 17.8 µM (inconclusive) and the AC50 [8] was “inconclusive”.
With `Cc1ccccc1S(=O)(=O)Oc1ccc2ccc(O)cc2c1` the AC50 [6] was 49.4 µM (active).
For `Cc1ccc2oc(Nc3nc(C)c(C)c(C)n3)nc2c1`, the AC50 [6] was 192 µM (active).
With `O=C(N/N=C/c1cc(Br)ccc1O)c1ccncc1` the IC50 [7] was 7.95 µM (active), the EC50 [16] was 3 µM (active) and the EC50 [17] was 17.7 µM (active). For the same compound, the EC50 [18] was > 350 µM (not active), the EC50 [19] was 3.78 µM (active) and the IC50 [20] was 5.51 µM (active). The AC50 [21] was 9.36 µM (active).
In the case of `Cc1cccc(NC(=O)N(Cc2cc3cc(C)ccc3[nH]c2=O)CC2COCCO2)c1` (stereo not given), the IC50 [7] is reported as 45.9 µM (active).
In the case of `CSc1nnc(-c2ccncc2)n1CCCN1CCCC1=O`, the IC50 [4] is reported as 2.76 µM (active) and the IC50 [5] is reported as 3.35 µM (active).
With `Cc1ccc(Nc2nc(-c3c(C)nc4ncccn34)cs2)cc1` the EC50 [22] was 60.6 µM (active), the IC50 [23] was 36.5 µM (inactive) and the AC50 [24] was 0.0316 µM (inconclusive). The AC50 [8] was “inconclusive”.
